Reference: BigSolDB 2.1

Structure (SMILES): Cn1cc([N+](=O)[O-])cn1
- solubility (mole fraction) (in 1,2-dichlorobenzene, 283.15 K): 0.000121
- solubility (mole fraction) (in 1,2-dichlorobenzene, 288.15 K): 0.000147
- solubility (mole fraction) (in 1,2-dichlorobenzene, 293.15 K): 0.000179
- solubility (mole fraction) (in 1,2-dichlorobenzene, 298.15 K): 0.000215
- solubility (mole fraction) (in 1,2-dichlorobenzene, 303.15 K): 0.000266
- solubility (mole fraction) (in 1,2-dichlorobenzene, 308.15 K): 0.000331
- solubility (mole fraction) (in 1,2-dichlorobenzene, 313.15 K): 0.000402
- solubility (mole fraction) (in 1,2-dichlorobenzene, 318.15 K): 0.000492
- solubility (mole fraction) (in 1,2-dichlorobenzene, 323.15 K): 0.000607
- solubility (mole fraction) (in 2-butanone, 283.15 K): 0.0093
- solubility (mole fraction) (in 2-butanone, 288.15 K): 0.0098
- solubility (mole fraction) (in 2-butanone, 293.15 K): 0.0112
- solubility (mole fraction) (in 2-butanone, 298.15 K): 0.0139
- solubility (mole fraction) (in 2-butanone, 303.15 K): 0.0162
- solubility (mole fraction) (in 2-butanone, 308.15 K): 0.0177
- solubility (mole fraction) (in 2-butanone, 313.15 K): 0.021
- solubility (mole fraction) (in 2-butanone, 318.15 K): 0.0242
- solubility (mole fraction) (in 2-butanone, 323.15 K): 0.0285
- solubility (mole fraction) (in 2-pentanol, 283.15 K): 0.000501
- solubility (mole fraction) (in 2-pentanol, 288.15 K): 0.000685
- solubility (mole fraction) (in 2-pentanol, 293.15 K): 0.000871
- solubility (mole fraction) (in 2-pentanol, 298.15 K): 0.0011
- solubility (mole fraction) (in 2-pentanol, 303.15 K): 0.00142
- solubility (mole fraction) (in 2-pentanol, 308.15 K): 0.00175
- solubility (mole fraction) (in 2-pentanol, 313.15 K): 0.00221
- solubility (mole fraction) (in 2-pentanol, 318.15 K): 0.00278
- solubility (mole fraction) (in 2-pentanol, 323.15 K): 0.00348
- solubility (mole fraction) (in acetic acid, 283.15 K): 0.000218
- solubility (mole fraction) (in acetic acid, 288.15 K): 0.000296
- solubility (mole fraction) (in acetic acid, 293.15 K): 0.00039
- solubility (mole fraction) (in acetic acid, 298.15 K): 0.000508
- solubility (mole fraction) (in acetic acid, 303.15 K): 0.000633
- solubility (mole fraction) (in acetic acid, 308.15 K): 0.000776
- solubility (mole fraction) (in acetic acid, 313.15 K): 0.000925
- solubility (mole fraction) (in acetic acid, 318.15 K): 0.00108
- solubility (mole fraction) (in acetic acid, 323.15 K): 0.0012
- solubility (mole fraction) (in acetone, 283.15 K): 0.0192
- solubility (mole fraction) (in acetone, 288.15 K): 0.0239
- solubility (mole fraction) (in acetone, 293.15 K): 0.0299
- solubility (mole fraction) (in acetone, 298.15 K): 0.0379
- solubility (mole fraction) (in acetone, 303.15 K): 0.0485
- solubility (mole fraction) (in acetone, 308.15 K): 0.0626
- solubility (mole fraction) (in acetone, 313.15 K): 0.0814
- solubility (mole fraction) (in acetone, 318.15 K): 0.107
- solubility (mole fraction) (in acetone, 323.15 K): 0.141
- solubility (mole fraction) (in acetonitrile, 283.15 K): 0.00299
- solubility (mole fraction) (in acetonitrile, 288.15 K): 0.00334
- solubility (mole fraction) (in acetonitrile, 293.15 K): 0.00423
- solubility (mole fraction) (in acetonitrile, 298.15 K): 0.00507
- solubility (mole fraction) (in acetonitrile, 303.15 K): 0.006
- solubility (mole fraction) (in acetonitrile, 308.15 K): 0.00673
- solubility (mole fraction) (in acetonitrile, 313.15 K): 0.00756
- solubility (mole fraction) (in acetonitrile, 318.15 K): 0.00937
- solubility (mole fraction) (in acetonitrile, 323.15 K): 0.0117
- solubility (mole fraction) (in ethanol, 283.15 K): 0.00483
- solubility (mole fraction) (in ethanol, 288.15 K): 0.00511
- solubility (mole fraction) (in ethanol, 293.15 K): 0.00546
- solubility (mole fraction) (in ethanol, 298.15 K): 0.00581
- solubility (mole fraction) (in ethanol, 303.15 K): 0.00633
- solubility (mole fraction) (in ethanol, 308.15 K): 0.00694
- solubility (mole fraction) (in ethanol, 313.15 K): 0.00736
- solubility (mole fraction) (in ethanol, 318.15 K): 0.00785
- solubility (mole fraction) (in ethanol, 323.15 K): 0.00823
- solubility (mole fraction) (in ethyl acetate, 283.15 K): 0.0126
- solubility (mole fraction) (in ethyl acetate, 288.15 K): 0.0143
- solubility (mole fraction) (in ethyl acetate, 293.15 K): 0.0162
- solubility (mole fraction) (in ethyl acetate, 298.15 K): 0.0183
- solubility (mole fraction) (in ethyl acetate, 303.15 K): 0.0208
- solubility (mole fraction) (in ethyl acetate, 308.15 K): 0.0235
- solubility (mole fraction) (in ethyl acetate, 313.15 K): 0.0265
- solubility (mole fraction) (in ethyl acetate, 318.15 K): 0.0299
- solubility (mole fraction) (in ethyl acetate, 323.15 K): 0.0337
- solubility (mole fraction) (in isopropanol, 283.15 K): 0.00185
- solubility (mole fraction) (in isopropanol, 288.15 K): 0.00235
- solubility (mole fraction) (in isopropanol, 293.15 K): 0.00292
- solubility (mole fraction) (in isopropanol, 298.15 K): 0.00363
- solubility (mole fraction) (in isopropanol, 303.15 K): 0.00455
- solubility (mole fraction) (in isopropanol, 308.15 K): 0.00566
- solubility (mole fraction) (in isopropanol, 313.15 K): 0.00697
- solubility (mole fraction) (in isopropanol, 318.15 K): 0.0085
- solubility (mole fraction) (in isopropanol, 323.15 K): 0.0102
- solubility (mole fraction) (in methanol, 283.15 K): 0.00628
- solubility (mole fraction) (in methanol, 288.15 K): 0.00699
- solubility (mole fraction) (in methanol, 293.15 K): 0.00754
- solubility (mole fraction) (in methanol, 298.15 K): 0.00835
- solubility (mole fraction) (in methanol, 303.15 K): 0.00923
- solubility (mole fraction) (in methanol, 308.15 K): 0.0103
- solubility (mole fraction) (in methanol, 313.15 K): 0.0113
- solubility (mole fraction) (in methanol, 318.15 K): 0.0126
- solubility (mole fraction) (in methanol, 323.15 K): 0.014
- solubility (mole fraction) (in methyl acetate, 283.15 K): 0.0161
- solubility (mole fraction) (in methyl acetate, 288.15 K): 0.0185
- solubility (mole fraction) (in methyl acetate, 293.15 K): 0.022
- solubility (mole fraction) (in methyl acetate, 298.15 K): 0.0255
- solubility (mole fraction) (in methyl acetate, 303.15 K): 0.0293
- solubility (mole fraction) (in methyl acetate, 308.15 K): 0.0351
- solubility (mole fraction) (in methyl acetate, 313.15 K): 0.0401
- solubility (mole fraction) (in methyl acetate, 318.15 K): 0.0461
- solubility (mole fraction) (in methyl acetate, 323.15 K): 0.0519
- solubility (mole fraction) (in n-butanol, 283.15 K): 0.00205
- solubility (mole fraction) (in n-butanol, 288.15 K): 0.00266
- solubility (mole fraction) (in n-butanol, 293.15 K): 0.00323
- solubility (mole fraction) (in n-butanol, 298.15 K): 0.00438
- solubility (mole fraction) (in n-butanol, 303.15 K): 0.00559
- solubility (mole fraction) (in n-butanol, 308.15 K): 0.00709
- solubility (mole fraction) (in n-butanol, 313.15 K): 0.0091
- solubility (mole fraction) (in n-butanol, 318.15 K): 0.0123
- solubility (mole fraction) (in n-butanol, 323.15 K): 0.0154
- solubility (mole fraction) (in n-pentanol, 283.15 K): 0.0016
- solubility (mole fraction) (in n-pentanol, 288.15 K): 0.00182
- solubility (mole fraction) (in n-pentanol, 293.15 K): 0.0021
- solubility (mole fraction) (in n-pentanol, 298.15 K): 0.0024
- solubility (mole fraction) (in n-pentanol, 303.15 K): 0.00278
- solubility (mole fraction) (in n-pentanol, 308.15 K): 0.00325
- solubility (mole fraction) (in n-pentanol, 313.15 K): 0.0038
- solubility (mole fraction) (in n-pentanol, 318.15 K): 0.00469
- solubility (mole fraction) (in n-pentanol, 323.15 K): 0.0054
- solubility (mole fraction) (in n-propanol, 283.15 K): 0.00209
- solubility (mole fraction) (in n-propanol, 288.15 K): 0.00229
- solubility (mole fraction) (in n-propanol, 293.15 K): 0.00259
- solubility (mole fraction) (in n-propanol, 298.15 K): 0.00296
- solubility (mole fraction) (in n-propanol, 303.15 K): 0.00331
- solubility (mole fraction) (in n-propanol, 308.15 K): 0.00382
- solubility (mole fraction) (in n-propanol, 313.15 K): 0.00425
- solubility (mole fraction) (in n-propanol, 318.15 K): 0.00487
- solubility (mole fraction) (in n-propanol, 323.15 K): 0.00553
- solubility (mole fraction) (in sec-butanol, 283.15 K): 0.000727
- solubility (mole fraction) (in sec-butanol, 288.15 K): 0.000891
- solubility (mole fraction) (in sec-butanol, 293.15 K): 0.00112
- solubility (mole fraction) (in sec-butanol, 298.15 K): 0.00151
- solubility (mole fraction) (in sec-butanol, 303.15 K): 0.00213
- solubility (mole fraction) (in sec-butanol, 308.15 K): 0.00287
- solubility (mole fraction) (in sec-butanol, 313.15 K): 0.00382
- solubility (mole fraction) (in sec-butanol, 318.15 K): 0.00501
- solubility (mole fraction) (in sec-butanol, 323.15 K): 0.00632
- solubility (mole fraction) (in toluene, 283.15 K): 0.00714
- solubility (mole fraction) (in toluene, 288.15 K): 0.00823
- solubility (mole fraction) (in toluene, 293.15 K): 0.0095
- solubility (mole fraction) (in toluene, 298.15 K): 0.0112
- solubility (mole fraction) (in toluene, 303.15 K): 0.0132
- solubility (mole fraction) (in toluene, 308.15 K): 0.0156
- solubility (mole fraction) (in toluene, 313.15 K): 0.0189
- solubility (mole fraction) (in toluene, 318.15 K): 0.0232
- solubility (mole fraction) (in toluene, 323.15 K): 0.0276
- solubility (mole fraction) (in water, 283.15 K): 7.5e-05
- solubility (mole fraction) (in water, 288.15 K): 9.4e-05
- solubility (mole fraction) (in water, 293.15 K): 0.000113
- solubility (mole fraction) (in water, 298.15 K): 0.000127
- solubility (mole fraction) (in water, 303.15 K): 0.000154
- solubility (mole fraction) (in water, 308.15 K): 0.000181
- solubility (mole fraction) (in water, 313.15 K): 0.000222
- solubility (mole fraction) (in water, 318.15 K): 0.000273
- solubility (mole fraction) (in water, 323.15 K): 0.000331
